Results: patent publication US20250084040A1, “SUBSTITUTED HETEROCYCLES AS c-MYC TARGETING AGENTS” (Northwestern University, priority 2018, published 2025)

Key:
MYC/Max binding to DNA = MYC/Max binding to DNA (Homo sapiens, UniProt P01106); experiment: Electrophoretic mobility shift assay (EMSA), MYC/Max binding to DNA
Method: We also tested our best hit compound Min9 (NUCC-0176234) and newly synthesized analogs for effects of these compounds on MYC/Max binding to DNA in electrophoretic mobility shift assays (EMSAs). (See FIG. 5a and FIG. 5b). We expected the active compounds to impair MYC/Max binding to DNA. Several strucutural analogs of Min9 were tested over multiple doses for inhibiting MYC-DNA binding and we observed a dose-dependent inhibition. (See FIG. 5c).

[1] = test system: cMYC wild-type (WT) and cMYC KO line; experiment: Cell viability, cMYC wild-type (WT) versus cMYC KO line; type: cell-based; settings: cMYC WT vs cMYC KO line
Method: Min9 (NUCC-0176234) was also tested in a cell viability assay against a cMYC wild-type (WT) and a cMYC KO line.

DNA damage = experiment: rH2AX staining assay for DNA damage; type: cell-based
Method: Min9 (NUCC-0176234) was also tested for its ability to cause DNA damage in an rH2AX staining assay. We would not expect cMYC-targeting agents to produce significant DNA damage. Compounds that act directly against DNA such as doxorubicin do however. […] (See FIG. 6).

[2] = In vitro metabolism, mouse S9 fraction; type: in vitro ADME
Method: (§1) In vitro metabolism of NUCC-176242 and NUCC-176248 were tested using mouse liver microsomes and a mouse S9 fraction. (See FIG. 9).

[3] = test system: wild type and MYC knockout rat fibroblasts; experiment: Growth inhibition of MYC wild type versus MYC knockout rat fibroblasts; type: cell-based
Description: We tested the top 13 active compounds in the first screen assay. […] More than half of the tested compounds show better growth inhibitory effect on MYC WT compared to MYC KO cells.

[4] = In vitro metabolism, mouse liver microsomes; type: in vitro ADME; settings: % remaining of compound after 60 min treatment with mouse liver microsomes
Method: as §1

MycCap cells = experiment: Cell viability of MycCap cells; type: cell-based
PC12 cells = experiment: Cell viability / proliferation of PC12 cells (Myc independent); type: cell-based
Method: (§2) Proliferation Assay (FIG. 11). PC3 prostate cancer cell line with high Myc level and PC12 pheochromocytoma tumor cell line with non functional Max protein, which is not dependent on Myc-Max complex, were phased from ATCC. Cells were plated in 96 well plate at 1000 cells per well, and Myc inhibitor 361 at various concentrations was added to the cells next day. After 3 days of treatment, fresh medium with 361 were added again, and cell viability was measured by MTS assay at day 5 after the treatment. (See FIG. 11).

MV411 cells = experiment: AML xenograft model (MV411), combination with Ara-C; type: in vivo, mouse; settings: AML mice xenograft model
Method: Myc inhibitor combination treatment with Ara-C in AML xenograft model (FIG. 17). CB17 SCID mice were inoculated with MV411 cells at the density of 5×10^6 suspended in PBS and matrigel (1:1). The mice were randomized based on tumor volume into 6 different groups after the tumor reached ˜200 to 500 mm^3. The mice were treated either with vehicle, NUO31, NU975 alone or in combination with cytarabine (Ara-C). […] (See FIG. 17).

[5] = test system: MYC transcriptional activity; experiment: MYC E-Box luciferase reporter assay; type: cell-based; settings: MycCap Ebox-luc, 4 hours of treatment
Method: To test the compounds, we evaluated the in silico hits in a MYC E-Box luciferase reporter assay to measure the effects of these compounds (referred to as Min-1 to Min-32) on MYC transcriptional activity. […] (See FIG. 2).
Myc Ebox luciferase reporter assay (FIG. 12). MycCap cells stably expressing luciferase with CMV promoter (MycCap-luc) or c-Myc E-box-luciferase reporter (MycCap Ebox-luc) were plated at 10000 cells per well in 96 well white-wall plate. Serial dilutions of 361 were treated next day. At 4 hours of treatment, luminescence signal was determined immediately after adding 150 μg/ml of Luciferin to the well. (See FIG. 12).

[6] = test system: PC3 prostate cancer cell line; experiment: Proliferation assay (MTS), PC3 prostate cancer cell line; type: cell-based; settings: day 5
Method: as §2

MycCap tumor [7] = experiment: MycCap FVB allograft model; type: in vivo; settings: mouse prostate cancer allograft model, intra-peritoneally
Method: MycCap FVB allograft model (FIG. 15). FVB mice were inoculated with 1×10^6 of MycCap cells in 100 ul of matrigel subcutaneously on both flanks of the mice. When tumor size reached average size of 150 mm^3, mice were randomized based on tumor volume to 2 groups. Mice were administered with 50 mg/kg of 361 or vehicle (Veh) twice daily intra-peritoneally for two days. The treatment was suspended for 10 day, and initiated the treatment with a lower dose […] daily for another 9 days. Tumor size was measured twice a week during the experiment. (See FIG. 15).

MycCap tumor [8] = experiment: MycCap FVB allograft model, combination with anti-PD-1 immunotherapy; type: in vivo, mouse; settings: combination with Immunotherapy (anti-PD-1 antibody)
Method: Myc inhibitor 361 combination with Immunotherapy (FIG. 16). MycCap FVB allograft model was treated with 361 (50 mg/kg) for two days, following by two days of anti-PD-1 antibody (100 ug/day), and kept this 4-day treatment cycle for 4 cycles. (See FIG. 16).

Sequence of MYC/Max binding to DNA (P01106 whole entry): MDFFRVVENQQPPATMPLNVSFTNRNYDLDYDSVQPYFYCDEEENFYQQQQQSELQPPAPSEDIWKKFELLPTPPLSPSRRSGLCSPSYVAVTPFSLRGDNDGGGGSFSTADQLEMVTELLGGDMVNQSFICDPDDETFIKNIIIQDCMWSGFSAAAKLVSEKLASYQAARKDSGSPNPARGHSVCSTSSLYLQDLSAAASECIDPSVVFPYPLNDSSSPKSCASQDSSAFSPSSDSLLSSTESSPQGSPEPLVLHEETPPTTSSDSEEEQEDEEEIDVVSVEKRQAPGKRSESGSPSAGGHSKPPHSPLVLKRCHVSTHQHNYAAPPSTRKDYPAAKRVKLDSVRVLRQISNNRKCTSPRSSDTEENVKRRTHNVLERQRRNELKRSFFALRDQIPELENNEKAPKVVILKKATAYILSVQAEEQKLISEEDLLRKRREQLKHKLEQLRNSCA

Question: Which “inhibition of MYC/Max binding to DNA (in words)” value (MYC/Max binding to DNA) does the source give for CCc1ccc(Oc2c[nH]nc2-c2ccc(OCc3cnn(-c4ccccc4)c3)cc2O)cc1 [NUCC-0176234] here?
Answer: The value was “prevent c-MYC/DNA binding”.

Question: What about the “cell viability, WT line versus KO cells” value [1] of the same compound?
Answer: The value was “reduces cell viability much more in the WT line than the KO cells”.

Question: What about the DNA damage (DNA damage) of the same compound?
Answer: The DNA damage was “essentially no DNA damage”.

Question: For CCc1ccc(Oc2c(-c3ccc(OCc4ccc(Cl)cc4)cc3O)n[nH]c2C(F)(F)F)cc1 [NUCC-0176242], which “metabolism by mouse S9 fraction” value [2] is on record?
Answer: Its value is “significantly metabolism by the mouse S9 fraction versus NUCC-176248”.

Question: With CCc1ccc(Oc2c(-c3ccc(OCc4ccc(Cl)cc4)cc3O)nn(C)c2C(F)(F)F)cc1 [NUCC-0176248] as the compound, how does the “selectivity of growth inhibition, MYC WT compared to MYC KO cells” value [3] read?
Answer: Its value is “high specificity”.

Question: For CCc1ccc(Oc2c(-c3ccc(OCc4ccncc4)cc3O)n[nH]c2C(F)(F)F)cc1 [NUCC-0176250], which “selectivity of growth inhibition, MYC WT compared to MYC KO cells” value [3] is on record?
Answer: The value was “great selectivity”.

Question: With Oc1c(-c2cc(C(F)(F)F)n[nH]2)ccc(OCCN2CCCC2)c1-c1cc(C(F)(F)F)cc(C(F)(F)F)c1 [NUCC-0201032] as the compound, how does the “MLM % at 60 min” value [4] read?
Answer: Its value is 30.5%.

Question: With CCCCCCOc1ccc(-c2cc(C(F)(F)F)n[nH]2)c(O)c1-c1cc(C(F)(F)F)cc(C(F)(F)F)c1 [NUCC-0201196] as the compound, how does the “MLM % at 60 min” value [4] read?
Answer: The value was 66.6%.

Question: For CCCCCCOc1ccc(-c2cc(C(F)(F)F)nn2C)c(O)c1-c1cncc(C#N)c1 [NUCC-0201207], which “MLM % at 60 min” value [4] is on record?
Answer: Its value is 52.7%.

Question: With CCCCOc1ccc(-c2cc(C(F)(F)F)n(C)n2)c(O)c1-c1cncc(C(F)(F)F)c1 [NUCC-0201209] as the compound, how does the “MLM % at 60 min” value [4] read?
Answer: The value was 10.3%.

Question: For Oc1c(-c2cc(C(F)(F)F)[nH]n2)ccc(Oc2ccc(Cl)cc2)c1-c1cc(C(F)(F)F)cc(C(F)(F)F)c1 [NUCC-0201223], which “MLM % at 60 min” value [4] is on record?
Answer: Its value is 75.8%.

Question: Which IC50 (MycCap cells) does the source give for CNC(=O)c1cc(-c2ccc(OCc3ccc(Cl)cc3)c(-c3cc(C(F)(F)F)cc(C(F)(F)F)c3)c2O)nn1C [NUCC-0201224] here?
Answer: The IC50 was 1.1 µM.

Question: What about the IC50 (PC12 cells) of the same compound?
Answer: Its IC50 is 11.6 µM.

Question: Which “anti-tumor effect with Ara-C” value (MV411 cells) does the source give for CCCCOc1ccc(-c2cc(C(F)(F)F)n[nH]2)c(O)c1-c1cc(C(F)(F)F)cc(C(F)(F)F)c1 [compound 031] here?
Answer: Its value is “significant synergic anti-tumor effect”.

Question: With Cn1nc(C(F)(F)F)cc1-c1ccc(OCc2ccc(Cl)cc2)c(-c2cc(C(F)(F)F)cc(C(F)(F)F)c2)c1O [compound 361] as the compound, how does the c-Myc transcription activity [5] read?
Answer: The c-Myc transcription activity was “inhibits c-Myc transcription activity as an early event before affecting cell viability”.

Question: What about the “proliferation of Myc dependent cell line PC3” value [6] of the same compound?
Answer: Its value is “specifically inhibits proliferation”.

Question: And the tumor volume (MycCap tumor [7])?
Answer: The tumor volume was “reduces tumor volume”.

Question: What about the tumor progression (MycCap tumor [8]) of the same compound?
Answer: The tumor progression was “significantly blocks tumor progression”.

Question: With Cn1nc(C(F)(F)F)cc1-c1ccc(OCc2ccc(Cl)cc2)c(-c2ccc(Cl)c(C(F)(F)F)c2)c1O [compound 975] as the compound, how does the “anti-tumor effect with Ara-C” value (MV411 cells) read?
Answer: The value was “significant synergic anti-tumor effect”.
